Measurements published in US20050054708A1, “Combinations of drugs for the treatment of neoplasms” (priority 2003, published 2005).
Where two headings read alike, the source gives them in different places.

Legend:
[1] = mice, single intraperitoneal injection at 10 mg/kg; cited from earlier work
[2] = target: T1, protein tyrosine phosphatase 1B (PTP1 B) (Homo sapiens, UniProt P18031); conditions: cited from earlier work
T1 sequence (P18031 1-435): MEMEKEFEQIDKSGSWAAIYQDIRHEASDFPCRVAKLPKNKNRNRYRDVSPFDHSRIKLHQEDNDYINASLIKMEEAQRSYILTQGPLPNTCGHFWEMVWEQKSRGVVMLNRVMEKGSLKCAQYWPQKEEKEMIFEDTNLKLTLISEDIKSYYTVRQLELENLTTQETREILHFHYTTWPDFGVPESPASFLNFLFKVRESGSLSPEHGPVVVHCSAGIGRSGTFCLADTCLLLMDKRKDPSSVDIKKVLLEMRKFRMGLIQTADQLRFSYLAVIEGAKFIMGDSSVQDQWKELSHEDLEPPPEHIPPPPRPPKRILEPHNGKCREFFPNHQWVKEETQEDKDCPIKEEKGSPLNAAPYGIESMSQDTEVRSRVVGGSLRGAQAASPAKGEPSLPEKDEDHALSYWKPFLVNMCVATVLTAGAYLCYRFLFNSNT

[3] = tested on: phosphatases of regenerating liver (PRL-1, PRL-2, or PRL-3); conditions: cited from earlier work
endo-exonuclease = conditions: PCT Publication No. WO 01/35935; cited from earlier work
A549 cells = experiment: Anti-proliferation assay (Alamar Blue metabolism); conditions: Homo sapiens;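 further: 384-well plates, 72–80 h exposure at 37 °C, Alamar Blue fluorescence (ex 530 nm) read 3.5–5 h after dye addition, inhibition relative to mean of vehicle-only wells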
Description: Human non-small cells lung carcinoma cells A549 (ATCC# CCL-185), were grown at 37±0.5° C. and 5% CO2 in DMEM supplemented with 10% FBS, 2 mM glutamine, 1% penicillin, and 1% streptomycin.
Stock solutions (1000×) of each compound were prepared in DMSO and stored at −20° C. Master stock plates of 2-fold or 4-fold serial dilutions of individual compounds were prepared in 384-well plates. Combination matrices of test compounds were generated from these master stock plates by dilution into growth media described above. […] The combination matrices were used immediately and discarded.
The anti-proliferation assays were performed in 384-well plates. 6.6 μL of 10× stock solutions from the combination matrices were added to 40 μL of culture media in assay wells. The tumor cells were liberated from the culture flask using a solution of 0.25% trypsin. Cells were diluted in culture media such that 3000 or 6000 cells were delivered in 20 μL of media into each assay well. Assay plates were incubated for 72-80 hours at 37° C. ±0.5° C. with 5% CO2. Twenty microliters of 20% Alamar Blue warmed to 37° C. ±0.5° C. was added to each assay well following the incubation period. Alamar Blue metabolism was quantified by the amount of fluorescence intensity 3.5-5.0 hours after addition. Quantification, using an LJL Analyst AD reader (LJL Biosystems), was taken in the middle of the well with high attenuation, a 100 msec read time, an excitation filter at 530 nm, and an emission filter at 575 nm. For some experiments, quantification was performed using a Wallac Victor^2 reader. Measurements were taken at the top of the well with stabilized energy lamp control; a 100 msec read time, an excitation filter at 530 nm, and an emission filter at 590 nm.
The percent inhibition (% I) for each well was calculated using the following formula: % I=[(avg. untreated wells−treated well)/(avg. untreated wells)]×100 The average untreated well value (avg. untreated wells) is the arithmetic mean of 40 wells from the same assay plate treated with vehicle alone.
Inhibition of proliferation was measured by anti-proliferation assay as described below after incubation with the test compound(s) for 72 hours.

N=C(N)c1ccc(OCCCCCOc2ccc(C(=N)N)cc2)cc1 [Pentamidine, pentamidine]
tissue distribution [1]: The concentration in the kidneys was the highest, followed by that in the liver
inhibition of protein tyrosine phosphatase 1B [2]: effective inhibitor
inhibition of phosphatases of regenerating liver [3]: potent inhibitor
inhibition of endo-exonuclease activity (endo-exonuclease): inhibit the activity of endo-exonuclease
inhibition at 0.013 µM (A549 cells; A549, read-out: Percent inhibition of Alamar Blue Metabolism, pentamidine 0.013 μM alone (Table 3)): -28.2%
inhibition at 0.013 µM (A549 cells; A549, read-out: Percent inhibition of Alamar Blue Metabolism, pentamidine 0.013 μM alone (Table 4)): 8.4%
inhibition at 0.013 µM (A549 cells; A549, read-out: Percent inhibition of Alamar Blue Metabolism, pentamidine 0.013 μM alone (Table 5)): 30.2%
inhibition at 0.013 µM (A549 cells; A549, read-out: Percent inhibition of Alamar Blue Metabolism, pentamidine 0.013 μM alone (Table 6)): -6.7%
inhibition at 0.013 µM (A549 cells; A549, read-out: Percent inhibition of Alamar Blue Metabolism, pentamidine 0.013 μM alone (Table 7)): -4.4%
inhibition at 0.026 µM (A549 cells; A549, read-out: Percent inhibition of Alamar Blue Metabolism, pentamidine 0.026 μM alone (Table 3)): -25.3%
inhibition at 0.026 µM (A549 cells; A549, read-out: Percent inhibition of Alamar Blue Metabolism, pentamidine 0.026 μM alone (Table 4)): -6.8%
inhibition at 0.026 µM (A549 cells; A549, read-out: Percent inhibition of Alamar Blue Metabolism, pentamidine 0.026 μM alone (Table 5)): 28.4%
inhibition at 0.026 µM (A549 cells; A549, read-out: Percent inhibition of Alamar Blue Metabolism, pentamidine 0.026 μM alone (Table 6)): 13.1%
inhibition at 0.026 µM (A549 cells; A549, read-out: Percent inhibition of Alamar Blue Metabolism, pentamidine 0.026 μM alone (Table 7)): -3%
inhibition at 0.05 µM (A549 cells; A549, read-out: Percent inhibition of Alamar Blue Metabolism, pentamidine 0.050 μM alone (Table 8)): 2.4%
inhibition at 0.053 µM (A549 cells; A549, read-out: Percent inhibition of Alamar Blue Metabolism, pentamidine 0.053 μM alone (Table 3)): -12.4%
inhibition at 0.053 µM (A549 cells; A549, read-out: Percent inhibition of Alamar Blue Metabolism, pentamidine 0.053 μM alone (Table 4)): -8.8%
inhibition at 0.053 µM (A549 cells; A549, read-out: Percent inhibition of Alamar Blue Metabolism, pentamidine 0.053 μM alone (Table 5)): 30.4%
inhibition at 0.053 µM (A549 cells; A549, read-out: Percent inhibition of Alamar Blue Metabolism, pentamidine 0.053 μM alone (Table 6)): 1.1%
inhibition at 0.053 µM (A549 cells; A549, read-out: Percent inhibition of Alamar Blue Metabolism, pentamidine 0.053 μM alone (Table 7)): -1.9%
inhibition at 0.1 µM (A549 cells; A549, read-out: Percent inhibition of Alamar Blue Metabolism, pentamidine 0.100 μM alone (Table 8)): -3.1%
inhibition at 0.105 µM (A549 cells; A549, read-out: Percent inhibition of Alamar Blue Metabolism, pentamidine 0.105 μM alone (Table 3)): 4.7%
inhibition at 0.105 µM (A549 cells; A549, read-out: Percent inhibition of Alamar Blue Metabolism, pentamidine 0.105 μM alone (Table 4)): -3.7%
inhibition at 0.105 µM (A549 cells; A549, read-out: Percent inhibition of Alamar Blue Metabolism, pentamidine 0.105 μM alone (Table 5)): 33.7%
inhibition at 0.105 µM (A549 cells; A549, read-out: Percent inhibition of Alamar Blue Metabolism, pentamidine 0.105 μM alone (Table 6)): -3.7%
inhibition at 0.105 µM (A549 cells; A549, read-out: Percent inhibition of Alamar Blue Metabolism, pentamidine 0.105 μM alone (Table 7)): 9.2%
inhibition at 0.2 µM (A549 cells; A549, read-out: Percent inhibition of Alamar Blue Metabolism, pentamidine 0.200 μM alone (Table 8)): -0.7%
inhibition at 0.35 µM (A549 cells; A549, read-out: Percent inhibition of Alamar Blue Metabolism, pentamidine 0.350 μM alone (Table 8)): -1.5%
inhibition at 0.421 µM (A549 cells; A549, read-out: Percent inhibition of Alamar Blue Metabolism, pentamidine 0.421 μM alone (Table 4)): 50%
inhibition at 0.421 µM (A549 cells; A549, read-out: Percent inhibition of Alamar Blue Metabolism, pentamidine 0.421 μM alone (Table 6)): 32.6%
inhibition at 0.421 µM (A549 cells; A549, read-out: Percent inhibition of Alamar Blue Metabolism, pentamidine 0.421 μM alone (Table 7)): 10.5%
inhibition at 0.422 µM (A549 cells; A549, read-out: Percent inhibition of Alamar Blue Metabolism, pentamidine 0.422 μM alone (Table 3)): 52.1%
inhibition at 0.422 µM (A549 cells; A549, read-out: Percent inhibition of Alamar Blue Metabolism, pentamidine 0.422 μM alone (Table 5)): 68.2%
inhibition at 0.5 µM (A549 cells; A549, read-out: Percent inhibition of Alamar Blue Metabolism, pentamidine 0.500 μM alone (Table 8)): 15.8%
inhibition at 0.7 µM (A549 cells; A549, read-out: Percent inhibition of Alamar Blue Metabolism, pentamidine 0.700 μM alone (Table 8)): 21.7%
inhibition at 1 µM (A549 cells; A549, read-out: Percent inhibition of Alamar Blue Metabolism, pentamidine 1.000 μM alone (Table 8)): 48.9%
inhibition at 1.3 µM (A549 cells; A549, read-out: Percent inhibition of Alamar Blue Metabolism, pentamidine 1.300 μM alone (Table 8)): 64.7%
inhibition at 1.685 µM (A549 cells; A549, read-out: Percent inhibition of Alamar Blue Metabolism, pentamidine 1.685 μM alone (Table 4)): 79.1%
inhibition at 1.685 µM (A549 cells; A549, read-out: Percent inhibition of Alamar Blue Metabolism, pentamidine 1.685 μM alone (Table 6)): 71.9%
inhibition at 1.685 µM (A549 cells; A549, read-out: Percent inhibition of Alamar Blue Metabolism, pentamidine 1.685 μM alone (Table 7)): 62.9%
inhibition at 1.687 µM (A549 cells; A549, read-out: Percent inhibition of Alamar Blue Metabolism, pentamidine 1.687 μM alone (Table 3)): 78.2%
inhibition at 1.687 µM (A549 cells; A549, read-out: Percent inhibition of Alamar Blue Metabolism, pentamidine 1.687 μM alone (Table 5)): 83.1%
inhibition at 1.7 µM (A549 cells; A549, read-out: Percent inhibition of Alamar Blue Metabolism, pentamidine 1.700 μM alone (Table 8)): 70.1%
inhibition at 3.37 µM (A549 cells; A549, read-out: Percent inhibition of Alamar Blue Metabolism, pentamidine 3.370 μM alone (Table 4)): 79.4%
inhibition at 3.37 µM (A549 cells; A549, read-out: Percent inhibition of Alamar Blue Metabolism, pentamidine 3.370 μM alone (Table 6)): 80.6%
inhibition at 3.37 µM (A549 cells; A549, read-out: Percent inhibition of Alamar Blue Metabolism, pentamidine 3.370 μM alone (Table 7)): 73.7%
inhibition at 3.374 µM (A549 cells; A549, read-out: Percent inhibition of Alamar Blue Metabolism, pentamidine 3.374 μM alone (Table 3)): 85.4%
inhibition at 3.374 µM (A549 cells; A549, read-out: Percent inhibition of Alamar Blue Metabolism, pentamidine 3.374 μM alone (Table 5)): 87.5%
